Values joined by “and” are separate entries in the source; they are usually repeats but may differ in a detail not shown here. Identical values can stand only once. HELM strings list units from the 5' end as sugar, base in round brackets, then linkage (d deoxyribose, r ribose, m 2'-O-methyl, p phosphodiester). Methylation of C is not given here. [moe] = 2'-O-(2-methoxyethyl) (MOE); [cEt] = constrained ethyl (cEt); [sp] = phosphorothioate linkage

We go through 22 substances from the OligoGym collection.

In this series the target is HBV. To be noted: ASO.

Consider “RNA1{[moe](A)[sp].[moe](G)[sp].[moe](T)[sp].[moe](T)[sp].d(C)[sp].d(C)[sp].d(G)[sp].d(C)[sp].d(A)[sp].d(G)[sp].d(T)[sp].d(A)[sp].d(T)[sp].[moe](G)[sp].[moe](G)[sp].[moe](A)[sp].[moe](T)}$$$$V2.0”, for which, for the setting “HepG2, 0.07 µM”, the target mRNA inhibition was 43% and 52%.

For “RNA1{[moe](A)[sp].[moe](G)[sp].[moe](T)[sp].[moe](T)[sp].d(C)[sp].d(C)[sp].d(G)[sp].d(C)[sp].d(A)[sp].d(G)[sp].d(T)[sp].d(A)[sp].d(T)[sp].[moe](G)[sp].[moe](G)[sp].[moe](A)}$$$$V2.0”, the target mRNA inhibition (HepG2, 0.07 µM) is 60% and 39%.

Consider “RNA1{[moe](A)[sp].[moe](G)[sp].[moe](T)[sp].d(T)[sp].d(C)[sp].d(C)[sp].d(G)[sp].d(C)[sp].d(A)[sp].d(G)[sp].d(T)[sp].d(A)[sp].d(T)[sp].[cEt](G)[sp].[cEt](G)[sp].[cEt](A)}$$$$V2.0”, for which, under “HepG2, 0.07 µM”, the target mRNA inhibition is 58% and 69%.

“RNA1{[moe](A)[sp].[moe](G)[sp].d(A)[sp].d(A)[sp].d(G)[sp].d(T)[sp].d(C)[sp].d(C)[sp].d(A)[sp].d(C)[sp].d(C)[sp].[moe](A)[sp].[moe](C)[sp].[moe](G)[sp].[moe](A)[sp].[moe](G)[sp].[moe](T)}$$$$V2.0”: the target mRNA inhibition (HepG2, 0.07 µM) is 62% and 49%.

In the case of “RNA1{[moe](A)[sp].[moe](T)[sp].[moe](G)[sp].[moe](A)[sp].[moe](G)[sp].[moe](G)[sp].d(C)[sp].d(A)[sp].d(T)[sp].d(A)[sp].d(G)[sp].d(C)[sp].d(A)[sp].d(G)[sp].d(C)[sp].[moe](A)[sp].[moe](G)}$$$$V2.0”, where the note is “HepG2, 0.07 µM”, the target mRNA inhibition was 55% and 51%.

For “RNA1{[moe](A)[sp].[moe](T)[sp].[moe](G)[sp].d(A)[sp].d(G)[sp].d(G)[sp].d(C)[sp].d(A)[sp].d(T)[sp].d(A)[sp].d(G)[sp].d(C)[sp].[moe](A)[sp].[moe](G)[sp].[moe](C)[sp].[moe](A)[sp].[moe](G)}$$$$V2.0”, the target mRNA inhibition (HepG2, 0.07 µM) was 66% and 51%.

As for “RNA1{[moe](A)[sp].[moe](T)[sp].[moe](T)[sp].[moe](T)[sp].[moe](A)[sp].d(T)[sp].d(G)[sp].d(C)[sp].d(C)[sp].d(T)[sp].d(A)[sp].d(C)[sp].d(A)[sp].d(G)[sp].[moe](C)[sp].[moe](C)[sp].[moe](T)}$$$$V2.0”, the target mRNA inhibition (HepG2, 0.07 µM) was 70% and 48%.

Regarding “RNA1{[moe](A)[sp].[moe](T)[sp].[moe](T)[sp].d(T)[sp].d(A)[sp].d(T)[sp].d(G)[sp].d(C)[sp].d(C)[sp].d(T)[sp].d(A)[sp].d(C)[sp].[moe](A)[sp].[moe](G)[sp].[moe](C)[sp].[moe](C)[sp].[moe](T)}$$$$V2.0”, the target mRNA inhibition (HepG2, 0.07 µM) is 58% and 50%.

As for “RNA1{[moe](C)[sp].[cEt](A)[sp].[cEt](A)[sp].d(A)[sp].d(T)[sp].d(G)[sp].d(G)[sp].d(C)[sp].d(A)[sp].d(C)[sp].d(T)[sp].d(A)[sp].d(G)[sp].[cEt](T)[sp].[cEt](A)[sp].[moe](A)}$$$$V2.0”, the target mRNA inhibition (HepG2, 0.07 µM) is 55% and 64%.

“RNA1{[moe](C)[sp].[cEt](A)[sp].d(C)[sp].d(T)[sp].d(G)[sp].d(A)[sp].d(A)[sp].d(C)[sp].d(A)[sp].d(A)[sp].d(A)[sp].d(T)[sp].[cEt](G)[sp].[moe](G)[sp].[cEt](C)[sp].[moe](A)}$$$$V2.0” gave a target mRNA inhibition (HepG2, 0.0092593 µM) of 5%; a target mRNA inhibition (HepG2, 0.0277778 µM) of 26%; a target mRNA inhibition (HepG2, 0.0833333 µM) of 64%; a target mRNA inhibition (HepG2, 0.25 µM) of 82%.

Regarding “RNA1{[moe](C)[sp].[cEt](C)[sp].[cEt](A)[sp].d(A)[sp].d(G)[sp].d(G)[sp].d(C)[sp].d(A)[sp].d(C)[sp].d(A)[sp].d(G)[sp].d(C)[sp].d(T)[sp].[cEt](T)[sp].[cEt](G)[sp].[moe](G)}$$$$V2.0”, the target mRNA inhibition (HepG2, 0.07 µM) is 1% and 0%.

On to “RNA1{[moe](C)[sp].[cEt](C)[sp].[cEt](A)[sp].d(A)[sp].d(T)[sp].d(T)[sp].d(T)[sp].d(A)[sp].d(T)[sp].d(G)[sp].d(C)[sp].d(C)[sp].d(T)[sp].[cEt](A)[sp].[cEt](C)[sp].[moe](A)}$$$$V2.0”, for which the target mRNA inhibition (HepG2, 0.07 µM) was 42% and 18%.

Take “RNA1{[moe](C)[sp].[cEt](C)[sp].[cEt](A)[sp].d(C)[sp].d(G)[sp].d(A)[sp].d(G)[sp].d(T)[sp].d(C)[sp].d(T)[sp].d(A)[sp].d(G)[sp].d(A)[sp].[cEt](C)[sp].[cEt](T)[sp].[moe](C)}$$$$V2.0”: the target mRNA inhibition (HepG2, 0.07 µM) amounted to 0%.

For “RNA1{[moe](C)[sp].[cEt](C)[sp].[cEt](A)[sp].d(C)[sp].d(T)[sp].d(G)[sp].d(A)[sp].d(A)[sp].d(C)[sp].d(A)[sp].d(A)[sp].d(A)[sp].d(T)[sp].[cEt](G)[sp].[cEt](G)[sp].[moe](C)}$$$$V2.0”, the target mRNA inhibition is 11% (HepG2, 0.0092593 µM); 28% (HepG2, 0.0277778 µM); 78% and 84% (HepG2, 0.07 µM); 68% (HepG2, 0.0833333 µM); 89% (HepG2, 0.25 µM).

“RNA1{[moe](C)[sp].[cEt](G)[sp].[cEt](A)[sp].d(A)[sp].d(C)[sp].d(C)[sp].d(A)[sp].d(C)[sp].d(T)[sp].d(G)[sp].d(A)[sp].d(A)[sp].d(C)[sp].[cEt](A)[sp].[cEt](A)[sp].[moe](A)}$$$$V2.0”: the target mRNA inhibition (HepG2, 0.07 µM) was 64% and 48%.

Consider “RNA1{[moe](C)[sp].[cEt](G)[sp].[cEt](C)[sp].d(A)[sp].d(G)[sp].d(T)[sp].d(A)[sp].d(T)[sp].d(G)[sp].d(G)[sp].d(A)[sp].d(T)[sp].d(C)[sp].[cEt](G)[sp].[cEt](G)[sp].[moe](C)}$$$$V2.0”, for which the target mRNA inhibition (HepG2, 0.07 µM) is 81% and 78%.

Turning to “RNA1{[moe](C)[sp].[cEt](G)[sp].d(G)[sp].d(G)[sp].d(C)[sp].d(A)[sp].d(A)[sp].d(C)[sp].d(A)[sp].d(T)[sp].d(A)[sp].d(C)[sp].[cEt](C)[sp].[moe](T)[sp].[cEt](T)[sp].[moe](G)}$$$$V2.0”, the target mRNA inhibition (HepG2, 0.07 µM) was 72% and 65%.

As to “RNA1{[moe](C)[sp].[cEt](T)[sp].[cEt](G)[sp].d(A)[sp].d(A)[sp].d(C)[sp].d(A)[sp].d(A)[sp].d(A)[sp].d(T)[sp].d(G)[sp].d(G)[sp].d(C)[sp].[cEt](A)[sp].[cEt](C)[sp].[moe](T)}$$$$V2.0”, the target mRNA inhibition (HepG2, 0.07 µM) is 69% and 58%.

Turning to “RNA1{[moe](C)[sp].[cEt](T)[sp].d(A)[sp].d(G)[sp].d(T)[sp].d(A)[sp].d(A)[sp].d(A)[sp].d(C)[sp].d(T)[sp].d(G)[sp].d(A)[sp].[cEt](G)[sp].[moe](C)[sp].[cEt](C)[sp].[moe](A)}$$$$V2.0”, the target mRNA inhibition (HepG2, 0.07 µM) was 74% and 76%.

On to “RNA1{[moe](C)[sp].[moe](A)[sp].[moe](A)[sp].d(T)[sp].d(T)[sp].d(T)[sp].d(A)[sp].d(T)[sp].d(G)[sp].d(C)[sp].d(C)[sp].d(T)[sp].d(A)[sp].[cEt](C)[sp].[cEt](A)[sp].[cEt](G)}$$$$V2.0”, for which the target mRNA inhibition (HepG2, 0.07 µM) was 30% and 20%.

For the substance “RNA1{[moe](C)[sp].[moe](A)[sp].[moe](C)[sp].[moe](T)[sp].[moe](A)[sp].d(G)[sp].d(T)[sp].d(A)[sp].d(A)[sp].d(A)[sp].d(C)[sp].d(T)[sp].d(G)[sp].d(A)[sp].[moe](G)[sp].[moe](C)}$$$$V2.0”, under “HepG2, 0.07 µM”, the target mRNA inhibition was 59% and 60%.

With “RNA1{[moe](C)[sp].[moe](A)[sp].[moe](C)[sp].d(T)[sp].d(A)[sp].d(G)[sp].d(T)[sp].d(A)[sp].d(A)[sp].d(A)[sp].d(C)[sp].d(T)[sp].[moe](G)[sp].[moe](A)[sp].[moe](G)[sp].[moe](C)}$$$$V2.0”, where the note is “HepG2, 0.07 µM”, the target mRNA inhibition was 14% and 4%.
